Measurements as given in PubChem BioAssay AID292 (DTP/NCI, 2004).
Where “and” joins values, the source holds several entries; their conditions need not be identical. Equal values may be shown once. Inconclusive results and toxic doses are left out.

Tested on: B6C3F1 mice, ip Sarcoma M5076, median survival T/C
Assay: NCI In Vivo Anticancer Drug Screen. Data for tumor model Sarcoma M5076 (intraperitoneal) in B6C3F1 mice
Conditions: endpoint: median survival time, schedule: Q04DX004 (ip), higher = longer survival
In short: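 Mice carrying the transplanted tumour received compound treatment. Survival was recorded, and each value is the treated-group measurement divided by that of the vehicle-dosed control group.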

[1] = dose: 50.0 mg/kg/injection, vehicle: saline
[2] = dose: 100.0 mg/kg/injection, vehicle: saline
[3] = dose: 50.0 mg/kg/injection, vehicle: saline with Tween-80
[4] = dose: 100.0 mg/kg/injection, vehicle: saline with Tween-80
[5] = dose: 200.0 mg/kg/injection, vehicle: saline with Tween-80
[6] = dose: 400.0 mg/kg/injection, vehicle: saline with Tween-80
[7] = dose: 12.5 mg/kg/injection, vehicle: saline with Tween-80
[8] = dose: 25.0 mg/kg/injection, vehicle: saline with Tween-80
[9] = dose: 6.25 mg/kg/injection, vehicle: saline with Tween-80
[10] = dose: 50.0 mg/kg/injection, vehicle: Klucel (hydroxypropylcellulose) (HPC)
[11] = dose: 100.0 mg/kg/injection, vehicle: Klucel (hydroxypropylcellulose) (HPC)
[12] = dose: 200.0 mg/kg/injection, vehicle: Klucel (hydroxypropylcellulose) (HPC)
[13] = dose: 400.0 mg/kg/injection, vehicle: Klucel (hydroxypropylcellulose) (HPC)
[14] = dose: 12.5 mg/kg/injection, vehicle: water
[15] = dose: 25.0 mg/kg/injection, vehicle: water
[16] = dose: 50.0 mg/kg/injection, vehicle: water
[17] = dose: 100.0 mg/kg/injection, vehicle: water

C=CCc1cn(C2CC(O)C(CO)O2)c(=O)[nH]c1=O (centres undefined) was tested, and the T/C [1] was 99 % of control, the T/C [2] was 93 % of control and the T/C (dose: 200.0 mg/kg/injection, vehicle: saline) was 93 % of control. The T/C (dose: 400.0 mg/kg/injection, vehicle: saline) was 101 % of control.
In the case of CCOP1(OCC)(SSC)OC(=O)C(C)S1 (centres undefined), the T/C (dose: 18.75 mg/kg/injection, vehicle: saline with Tween-80) is reported as 92 % of control, the T/C (dose: 37.5 mg/kg/injection, vehicle: saline with Tween-80) is reported as 88 % of control and the T/C (dose: 75.0 mg/kg/injection, vehicle: saline with Tween-80) is reported as 98 % of control.
For CCCCCCCCCCCC1C(C#N)C(=O)NC(=O)C1C#N (centres undefined), the T/C (dose: 50.0 mg/kg/injection, vehicle: Klucel + Tween-80) was 104 % of control, the T/C (dose: 100.0 mg/kg/injection, vehicle: Klucel + Tween-80) was 93 % of control and the T/C (dose: 200.0 mg/kg/injection, vehicle: Klucel + Tween-80) was 96 % of control. The T/C (dose: 400.0 mg/kg/injection, vehicle: Klucel + Tween-80) was 93 % of control and the T/C (dose: 800.0 mg/kg/injection, vehicle: Klucel + Tween-80) was 93 % of control.
In the case of NC(=O)c1[nH]cnc1O, the T/C [3] is reported as 102 % of control, the T/C [4] is reported as 101 % of control and 105 % of control and the T/C [5] is reported as 100 % of control and 105 % of control. The T/C [6] was 118 % of control.
In the case of COc1cc2c(c3c1c(=O)c1ccccc1n3C)C=CC(C)(C)O2, the T/C [7] is reported as 112 % of control, the T/C [8] is reported as 121 % of control and the T/C (dose: 166.7 mg/kg/injection, vehicle: saline with Tween-80) is reported as 110 % of control.
With CC(O)C1(O)C(O)CC(OC2c3cc4c(c(O)c3[C@@H]3C[C@@]2(C)OC32C=c3cc[nH]c3=N2)C(=O)c2cccc(O)c2C4=O)OC1C (some centres undefined) the T/C [7] was 104 % of control, the T/C [8] was 104 % of control and the T/C [3] was 92 % of control.
With CC1=CC(=NN=c2cc(C)n([O-])c(C)c2)C=C(C)[N+]1=O the T/C [4] was 122 % of control, the T/C [5] was 121 % of control and the T/C [6] was 98 % of control.
In the case of c1ccc2c(c1)[nH]c1c2c(N2CCOCC2)nn2cnnc12, the T/C [7] is reported as 92 % of control, the T/C [8] is reported as 88 % of control and 96 % of control and the T/C [3] is reported as 100 % of control. For the same compound, the T/C [4] was 95 % of control and the T/C [5] was 87 % of control.
In the case of Cc1cc(C(F)(F)F)nc2nc3ccccc3n12, the T/C (dose: 37.5 mg/kg/injection, vehicle: Klucel (hydroxypropylcellulose) (HPC)) is reported as 100 % of control, the T/C (dose: 75.0 mg/kg/injection, vehicle: Klucel (hydroxypropylcellulose) (HPC)) is reported as 95 % of control and the T/C (dose: 150.0 mg/kg/injection, vehicle: Klucel (hydroxypropylcellulose) (HPC)) is reported as 96 % of control. For the same compound, the T/C (dose: 300.0 mg/kg/injection, vehicle: Klucel (hydroxypropylcellulose) (HPC)) was 95 % of control.
In the case of COc1cc(C(C)(C)C)cc(OC)c1C(O)(c1c(OC)cc(C(C)(C)C)cc1OC)c1c(OC)cc(C(C)(C)C)cc1OC, the T/C [8] is reported as 123 % of control, the T/C [3] is reported as 116 % of control and the T/C [4] is reported as 108 % of control. The T/C [5] was 123 % of control.
For COC1=C(OC)C(=O)C(C(=O)CCCCC(=O)O)=C(C)C1=O, the T/C [8] was 100 % of control, the T/C [3] was 98 % of control and 105 % of control and the T/C [4] was 92 % of control and 97 % of control. For the same compound, the T/C [5] was 91 % of control, the T/C [6] was 91 % of control and 97 % of control and the T/C (dose: 800.0 mg/kg/injection, vehicle: saline with Tween-80) was 95 % of control.
For CCCCCCCC(=O)[O][Hg][CH2]C1COC([CH2][Hg][O]C(=O)CCCCCCC)CO1 (centres undefined), the T/C [9] was 95 % of control, the T/C [7] was 86 % of control and the T/C [8] was 86 % of control and 87 % of control. For the same compound, the T/C [3] was 87 % of control and 90 % of control and the T/C [4] was 87 % of control.
CCOC(=O)Cn1nc2oc(=O)c(CCN3CCN(c4ccccc4OC)CC3)c(C)c2c1C was tested, and the T/C [10] was 103 % of control, the T/C [11] was 103 % of control and the T/C [12] was 90 % of control. For the same compound, the T/C [13] was 94 % of control and the T/C (dose: 800.0 mg/kg/injection, vehicle: Klucel (hydroxypropylcellulose) (HPC)) was 89 % of control.
With COc1cc2c(c3c1c(=O)c1ccccc1n3C)C=C([N+](=O)[O-])C(C)(C)O2 the T/C (dose: 25.0 mg/kg/injection, vehicle: saline + Tween-80 + alcohol) was 104 % of control and the T/C (dose: 50.0 mg/kg/injection, vehicle: saline + Tween-80 + alcohol) was 90 % of control.
With NC(=O)C1C=CN(Cc2ccccc2)C=C1 the T/C [3] was 111 % of control, the T/C [4] was 116 % of control and the T/C [5] was 106 % of control.
For ClCCCN1CCN(CCCl)CC1, the T/C (dose: 0.63 mg/kg/injection, vehicle: saline with Tween-80) was 99 % of control, the T/C (dose: 1.25 mg/kg/injection, vehicle: saline with Tween-80) was 118 % of control and the T/C (dose: 10.0 mg/kg/injection, vehicle: saline with Tween-80) was 175 % of control. For the same compound, the T/C (dose: 20.0 mg/kg/injection, vehicle: saline with Tween-80) was 94 % of control.
In the case of Cc1[nH]c(=O)[nH]c(=O)c1C=O, the T/C [3] is reported as 100 % of control, the T/C [4] is reported as 101 % of control and the T/C [5] is reported as 98 % of control. The T/C [6] was 96 % of control.
In the case of COC(=O)NC1C(C)OC(OC2C/C=C(/C)C3C=CC4C(OC5CC(OC6CC(OC7CC(O)C(O)C(C)O7)C(OC7CC(O)C(OC)C(C)O7)C(C)O6)C(O)C(C)O5)C(C)CC(C)C4C3(C)/C(O)=C3\C(=O)OC4(CC(C)C(CO)=CC4/C=C\2C)C3=O)CC1(C)[N+](=O)[O-] (centres undefined), the T/C [14] is reported as 97 % of control, the T/C [15] is reported as 100 % of control and the T/C [16] is reported as 94 % of control. For the same compound, the T/C [17] was 104 % of control and the T/C (dose: 200.0 mg/kg/injection, vehicle: water) was 111 % of control.
For COc1ccc2nc(C)cc(N/N=C/c3cccnc3)c2c1, the T/C (dose: 12.5 mg/kg/injection, vehicle: Klucel (hydroxypropylcellulose) (HPC)) was 104 % of control, the T/C (dose: 25.0 mg/kg/injection, vehicle: Klucel (hydroxypropylcellulose) (HPC)) was 114 % of control and the T/C [10] was 116 % of control. The T/C [11] was 117 % of control.
In the case of CN(C)N=Nc1ccc(C(=O)O)cc1, the T/C (dose: 25.0 mg/kg/injection, vehicle: saline) is reported as 122 % of control, the T/C [1] is reported as 153 % of control and 159 % of control and 169 % of control and the T/C [2] is reported as 168 % of control and 178 % of control and 181 % of control.
For Cc1nc(N)nc(N)c1-c1ccc(Cl)c(Cl)c1, the T/C (dose: 1.25 mg/kg/injection, vehicle: saline) was 105 % of control, the T/C (dose: 2.5 mg/kg/injection, vehicle: saline) was 100 % of control and the T/C (dose: 5.0 mg/kg/injection, vehicle: saline) was 102 % of control. For the same compound, the T/C (dose: 10.0 mg/kg/injection, vehicle: saline) was 113 % of control.
With COc1ccc(/C=N/NC(=O)c2ccc(OCc3nc4ccccc4[nH]3)cc2)cc1 the T/C [8] was 99 % of control, the T/C [3] was 100 % of control and the T/C [4] was 103 % of control. The T/C [5] was 97 % of control and the T/C [6] was 97 % of control.
CCCCNP1(NCCCC)=NP(NCCCC)(NCCCC)=NP(NCCCC)(NCCCC)=NP(NCCCC)(NCCCC)=N1 was tested, and the T/C (dose: 3.13 mg/kg/injection, vehicle: saline with Tween-80) was 96 % of control, the T/C [9] was 104 % of control and the T/C [7] was 102 % of control. The T/C [8] was 96 % of control and the T/C [3] was 97 % of control.
In the case of Cc1ccc(C(=Nc2ccccc2)N=P(c2ccccc2)(c2ccccc2)c2ccccc2)cc1, the T/C [8] is reported as 106 % of control and the T/C [3] is reported as 93 % of control.
For CN(C)[C@@H]1C(=O)C(C(N)=O)=C(O)[C@@]2(O)C(=O)C3=C(O)c4c(O)ccc(Cl)c4[C@@](C)(O)[C@H]3C[C@@H]12, the T/C (dose: 25.0 mg/kg/injection, vehicle: suspension in saline) was 86 % of control, the T/C (dose: 50.0 mg/kg/injection, vehicle: suspension in saline) was 96 % of control and the T/C (dose: 100.0 mg/kg/injection, vehicle: suspension in saline) was 91 % of control.
With O=NNc1cnccn1 the T/C (dose: 6.25 mg/kg/injection, vehicle: water) was 107 % of control, the T/C [14] was 118 % of control and 123 % of control and the T/C [16] was 150 % of control and 155 % of control. For the same compound, the T/C [17] was 196 % of control.
CN1C(=O)C(=O)N(Cc2ccc(CN3C(=O)C(=O)N(C)C3=O)cc2)C1=O was tested, and the T/C [10] was 98 % of control, the T/C [11] was 94 % of control and the T/C [12] was 115 % of control. The T/C [13] was 92 % of control.
In the case of [Cl][Pt][Cl].[NH-]C(CO)C(=O)O (centres undefined), the T/C [14] is reported as 97 % of control, the T/C [15] is reported as 111 % of control and the T/C [16] is reported as 111 % of control.
